Laboratory results from the supplement of paper PMC10627819.

Tests used:
[1] = tested on: S. aureus DSM 20231; experiment: fitness (endpoint OD595 vs no drug) (fraction); higher = more growth
In short: (§1)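 Fitness compares growth at the stationary-phase transition with the robust mean of no-drug control wells, as a ratio of optical densities. The ratio is capped at 1. Wells of 384-well plates held 30 µl, or 55 µl for S. pneumoniae, inoculated at OD595 0.01. Readings at OD595 every 30 min for 14 h at 37 °C were corrected against the first reading.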

[2] = tested on: S. aureus Newman; experiment: as above
In short: as §1

[3] = tested on: S. pneumoniae D39V; experiment: as above
In short: as §1

[4] = tested on: B. subtilis 168; experiment: Bliss interaction score (quartile over a dose matrix) (fitness difference); higher = more antagonism (negative = synergy)
In short: (§2)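 Each OD595 reading at entry into stationary phase was scaled to the robust mean of the untreated wells on its plate, with a ceiling of 1. These ratios define fitness, and single-drug fitness was inferred from combinations. The Bliss score compares observed fitness with the product-based expectation and is reported as quartiles across all replicate types, technical, biological and donor/recipient.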

[5] = tested on: S. aureus DSM 20231; experiment: as above
In short: as §2

[6] = tested on: S. aureus Newman; experiment: as above
In short: as §2

[7] = tested on: S. pneumoniae D39V; experiment: as above
In short: as §2

[8] = first compound 0.0625 µg/mL, partner 0.625 µg/mL
[9] = first compound 0.125 µg/mL, partner 1.25 µg/mL
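For Bliss interaction score (quartile over a dose matrix) in this document: first quartile when negative (synergy) and third quartile when positive (antagonism).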
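For fitness (endpoint OD595 vs no drug) in this document: OD595 on entry to stationary phase over no-drug wells; at most 1.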

SMILES: CC1(C)S[C@@H]2[C@H](NC(=O)[C@H](N)c3ccc(O)cc3)C(=O)N2[C@H]1C(=O)O [Amoxicillin] + Cc1ncc([N+](=O)[O-])n1CCO [Metronidazole]
- fitness [1, 8]: 0.588
- fitness [1, 9]: 0.428
- fitness ([1]; first compound 0.5 µg/mL, partner 0.625 µg/mL): 0.0108
- fitness ([1]; first compound 0.5 µg/mL, partner 1.25 µg/mL): 0.0138
- fitness ([1]; first compound 0.5 µg/mL, partner 2.5 µg/mL): 0.0153
- fitness [2, 8]: 0.835
- fitness ([2]; first compound 0.0625 µg/mL, partner 0.781 µg/mL): 0.922
- fitness ([2]; first compound 0.0625 µg/mL, partner 1.25 µg/mL): 0.906
- fitness ([2]; first compound 0.0625 µg/mL, partner 1.562 µg/mL): 0.917
- fitness ([2]; first compound 0.0625 µg/mL, partner 2.5 µg/mL): 0.87
- fitness ([2]; first compound 0.0625 µg/mL, partner 3.124 µg/mL): 0.913
- fitness ([2]; first compound 0.125 µg/mL, partner 0.625 µg/mL): 0.839
- fitness ([2]; first compound 0.125 µg/mL, partner 0.781 µg/mL): 0.952
- fitness [2, 9]: 0.905
- fitness ([2]; first compound 0.125 µg/mL, partner 1.562 µg/mL): 0.972
- fitness ([2]; first compound 0.125 µg/mL, partner 2.5 µg/mL): 0.836
- fitness ([2]; first compound 0.125 µg/mL, partner 3.124 µg/mL): 0.957
- fitness ([2]; first compound 0.25 µg/mL, partner 0.625 µg/mL): 0.799
- fitness ([2]; first compound 0.25 µg/mL, partner 0.781 µg/mL): 0.945
- fitness ([2]; first compound 0.25 µg/mL, partner 1.25 µg/mL): 0.789
- fitness ([2]; first compound 0.25 µg/mL, partner 1.562 µg/mL): 0.951
- fitness ([2]; first compound 0.25 µg/mL, partner 2.5 µg/mL): 0.816
- fitness ([2]; first compound 0.25 µg/mL, partner 3.124 µg/mL): 0.929
- fitness ([3]; first compound 0.0008 µg/mL, partner 1.073 µg/mL): 0.958
- fitness ([3]; first compound 0.0008 µg/mL, partner 1.25 µg/mL, one replicate): ≥ 1
- fitness ([3]; first compound 0.0008 µg/mL, partner 2.145 µg/mL): 0.946
- fitness ([3]; first compound 0.0008 µg/mL, partner 2.5 µg/mL, one replicate): ≥ 1
- fitness ([3]; first compound 0.0008 µg/mL, partner 4.29 µg/mL): 0.919
- fitness ([3]; first compound 0.0008 µg/mL, partner 5 µg/mL, one replicate): ≥ 1
- fitness ([3]; first compound 0.0015 µg/mL, partner 1.073 µg/mL): 0.972
- fitness ([3]; first compound 0.0015 µg/mL, partner 1.25 µg/mL): 0.988
- fitness ([3]; first compound 0.0015 µg/mL, partner 2.145 µg/mL): 0.926
- fitness ([3]; first compound 0.0015 µg/mL, partner 2.5 µg/mL): ≥ 1
- fitness ([3]; first compound 0.0015 µg/mL, partner 4.29 µg/mL): 0.941
- fitness ([3]; first compound 0.0015 µg/mL, partner 5 µg/mL): 0.995
- fitness ([3]; first compound 0.003 µg/mL, partner 1.073 µg/mL): 0.938
- fitness ([3]; first compound 0.003 µg/mL, partner 1.25 µg/mL): 0.97
- fitness ([3]; first compound 0.003 µg/mL, partner 2.145 µg/mL): 0.914
- fitness ([3]; first compound 0.003 µg/mL, partner 2.5 µg/mL): 0.989
- fitness ([3]; first compound 0.003 µg/mL, partner 4.29 µg/mL): 0.93
- fitness ([3]; first compound 0.003 µg/mL, partner 5 µg/mL): 0.946
- fitness ([3]; first compound 0.006 µg/mL, partner 1.25 µg/mL, one replicate): 0.561
- fitness ([3]; first compound 0.006 µg/mL, partner 2.5 µg/mL, one replicate): 0.587
- fitness ([3]; first compound 0.006 µg/mL, partner 5 µg/mL, one replicate): 0.574
- Bliss interaction score [4]: 0.0817
- Bliss interaction score [5]: 0.0885
- Bliss interaction score [6]: 0.0677
- Bliss interaction score [7]: -0.0259
